Reference: ChEMBL document CHEMBL4732046, “A red-light-activated sulfonamide porphycene for highly efficient photodynamic therapy against hypoxic tumor” (Eur J Med Chem, 2021)
The source made the active and inactive calls. No cut-off for these calls is given here.

Key:
KYSE-70 cell line [1] = test: Photocytotoxicity against human KYSE-70 cells assessed as reduction in cell viability irradiated with 640 +/- 15 nm red LED for 4 hrs measured after 24 hrs by MTT assay; type: functional, cell-based; conditions: KYSE-70, light or radiation study
A-375 [2] = test: Photocytotoxicity against human A-375 cells assessed as reduction in cell viability irradiated with 640 +/- 15 nm red LED for 4 hrs measured after 24 hrs by MTT assay; type: functional, cell-based; conditions: A-375, light or radiation study
HeLa = test: Photocytotoxicity against human HeLa cells assessed as reduction in cell viability irradiated with 640 +/- 15 nm red LED for 4 hrs measured after 24 hrs under hypoxic condition by MTT assay; type: functional, cell-based; conditions: light or radiation study
KYSE-70 cell line [3] = test: Photocytotoxicity against human KYSE-70 cells assessed as reduction in cell viability irradiated with 640 +/- 15 nm red LED for 4 hrs measured after 24 hrs under hypoxic condition by MTT assay; type: functional, cell-based; conditions: KYSE-70, light or radiation study
B16 [4] = test: Photocytotoxicity against mouse B16 cells assessed as reduction in cell viability irradiated with 640 +/- 15 nm red LED for 4 hrs measured after 24 hrs under hypoxic condition by MTT assay; type: functional, cell-based; conditions: B16, light or radiation study
A-375 [5] = test: Antiproliferative activity against human A-375 cells assessed as inhibition of cell proliferation irradiated with 640 +/- 15 nm red LED for 4 hrs in presence of 30 uM D-mannitol measured after 24 hrs under hypoxic condition by MTT assay; type: functional, cell-based
B16 [6] = test: Antiproliferative activity against mouse B16 cells assessed as inhibition of cell proliferation irradiated with 640 +/- 15 nm red LED for 4 hrs in presence of 30 uM D-mannitol measured after 24 hrs by MTT assay; type: functional, cell-based
B16 [7] = test: Antiproliferative activity against mouse B16 cells assessed as inhibition of cell proliferation irradiated with 640 +/- 15 nm red LED for 4 hrs in presence of 30 uM D-mannitol measured after 24 hrs under hypoxic condition by MTT assay; type: functional, cell-based
B16 [8] = test: Antiproliferative activity against mouse B16 cells assessed as inhibition of cell proliferation irradiated with 640 +/- 15 nm red LED for 4 hrs in presence of 30 uM L-histidine measured after 24 hrs under hypoxic condition by MTT assay; type: functional, cell-based
[9] = Drug uptake in human A-375 cells lysosome after 24 hrs by Lyso-Tracker Red dye based confocal microscopic method; type: ADME, subcellular; conditions: a-375, 24 h
[10] = Drug uptake in mouse B16 cells lysosome after 24 hrs by Lyso-Tracker Red dye based confocal microscopic method; type: ADME, subcellular; conditions: b16, 24 h
B16 [11] = test: Induction of intracellular reactive oxygen species production in mouse B16 cells irradiated with 640 +/- 15 nm red LED for 1 hrs measured after 4 hrs by DCFH-DA probe based flow cytometry; type: functional, cell-based; conditions: dose nM <=400, time 4.0 hrs
A-375 [12] = test: Induction of apoptosis in human A-375 cells assessed as apoptotic cells at 100 nM irradiated with 640 +/- 15 nm red LED for 1 hrs after 24 hrs by Annexin V-FITC/propidium iodide staining based flow cytometric analysis relative to control; type: functional, cell-based
B16 [13] = test: Induction of apoptosis in mouse B16 cells assessed as apoptotic cells at 200 nM irradiated with 640 +/- 15 nm red LED for 1 hrs after 24 hrs by Annexin V-FITC/propidium iodide staining based flow cytometric analysis relative to control; type: functional, cell-based
A-375 [14] = test: Induction of mitochondrial membrane potential disruption in human A-375 cells assessed as reduction in red fluorescence upto 300 nM irradiated with 640 +/- 15 nm red LED for 1 hrs measured after 24 hrs by JC1 staining based fluorescence microscopy; type: functional, cell-based; conditions: dose nM <=300, time 24.0 hrs
A-375 [15] = test: Induction of apoptosis in human A-375 cells assessed as increase in Bax level at 100 to 300 nM irradiated with 640 +/- 15 nm red LED for 1 hrs measured after 24 hrs by Western blot analysis; type: functional, cell-based; conditions: dose 100-300 nM
A-375 [16] = test: Induction of apoptosis in human A-375 cells assessed as decrease in Bid level at 100 to 300 nM irradiated with 640 +/- 15 nm red LED for 1 hrs measured after 24 hrs by Western blot analysis; type: functional, cell-based; conditions: dose 100-300 nM
B16 [17] = test: Induction of apoptosis in mouse B16 cells assessed as decrease in Bid level at 200 to 400 nM irradiated with 640 +/- 15 nm red LED for 1 hrs measured after 24 hrs by Western blot analysis; type: functional, cell-based; conditions: dose 200-400 nM
B16 [18] = test: Induction of apoptosis in mouse B16 cells assessed as decrease in Bcl2 level at 200 to 400 nM irradiated with 640 +/- 15 nm red LED for 1 hrs measured after 24 hrs by Western blot analysis; type: functional, cell-based; conditions: dose 200-400 nM
A-375 [19] = test: Induction of apoptosis in human A-375 cells assessed as increase in cleaved caspase 9 level at 100 to 300 nM irradiated with 640 +/- 15 nm red LED for 1 hrs measured after 24 hrs by Western blot analysis; type: functional, cell-based; conditions: dose 100-300 nM
B16 [20] = test: Induction of apoptosis in mouse B16 cells assessed as increase in cleaved caspase 3 level at 200 to 400 nM irradiated with 640 +/- 15 nm red LED for 1 hrs measured after 24 hrs by Western blot analysis; type: functional, cell-based; conditions: dose 200-400 nM
B16 [21] = test: Induction of apoptosis in mouse B16 cells assessed as increase in cleaved caspase 9 level at 200 to 400 nM irradiated with 640 +/- 15 nm red LED for 1 hrs measured after 24 hrs by Western blot analysis; type: functional, cell-based; conditions: dose 200-400 nM
[22] = Toxicity in BALB/c mouse xenografted with human A-375 cells assessed as body weight at 50 uM, IT once every 2 days for 2 weeks followed every dosing irradiated with 640 +/- 15 nm red LED for 4 hrs; conditions: in vivo, other, 336 h
[23] = Toxicity in C57BL/6 mouse model assessed as effect on liver treated intratumorally once every 2 days for 2 weeks followed every dosing irradiated with 640 +/- 15 nm red LED for 4 hrs measured upto 28 days by H and E staining dependent light microscopy based histopathological analysis; type: tissue-based; conditions: in vivo, other, time <=28 day
[24] = Toxicity in C57BL/6 mouse model assessed as change in platelet count measured after 14 days; conditions: 336 h, time 14 day
[25] = Toxicity in C57BL/6 mouse assessed as effect on alanine aminotransferase level measured after 7 days; conditions: in vivo, 168 h, time 7 day
[26] = Toxicity in C57BL/6 mouse assessed as effect on serum creatinine level measured upto 14 days; conditions: in vivo, 336 h, time <=14 day
[27] = Toxicity in C57BL/6 mouse assessed as effect on lactate dehydrogenase level measured upto 14 days; conditions: in vivo, 336 h, time <=14 day
[28] = Drug uptake in human A-375 cells incubated for 24 hrs in presence of 2-deoxyglucose and sodium azide by mito-tracker green based confocal microscopic method; type: ADME, cell-based; conditions: a-375, 24 h
A-375 [29] = test: Induction of intracellular reactive oxygen species production in human A-375 cells assessed as […] membrane damage at 200 nM irradiated with 640 +/- 15 nm red LED for 1 hr measured after 4 hrs by mito-tracker green based confocal microscopic method; type: functional, cell-based
B16 [30] = test: Induction of intracellular reactive oxygen species production in mouse B16 cells assessed as […] membrane damage at 200 nM irradiated with 640 +/- 15 nm red LED for 1 hr measured after 4 hrs by mito-tracker green based confocal microscopic method; type: functional, cell-based

SMILES: CC(C)(C)C1=Cc2nc1ccc1[nH]c(cc1S(=O)(=O)NCCOCCO)c1nc(ccc3[nH]c2cc3C(C)(C)C)C(C(C)(C)C)=C1
- DC50 (KYSE-70 cell line [1]): 31 nM
- DC50 (A-375 [2]): 192 nM
- DC50 (HeLa): 49 nM
- DC50 (KYSE-70 cell line [3]): 51 nM
- DC50 (B16 [4]): 360 nM
- Activity (A-375 [5]): inactive
- Activity (B16 [6]): inactive
- Activity (B16 [7]): inactive
- Activity (B16 [8]): Active
- Drug uptake [9]: Active
- Drug uptake [10]: Active
- Activity (B16 [11]): Dose-dependent effect
- Activity (A-375 [12]): Active
- Activity (B16 [13]): Active
- Activity (A-375 [14]): Active
- Activity (A-375 [15]): Active
- Activity (A-375 [16]): Active
- Activity (B16 [17]): Active
- Activity (B16 [18]): Active
- Activity (A-375 [19]): Active
- Activity (B16 [20]): Active
- Activity (B16 [21]): Active
- Activity [22]: Non-Toxic
- Activity [23]: Non-Toxic
- Activity [24]: Non-Toxic
- Activity [25]: Toxic
- Activity [26]: Non-Toxic
- Activity [27]: Non-Toxic
- Drug uptake [28]: Not Active
- Activity (A-375 [29]): Active
- Activity (B16 [30]): Active
